This passage reports TGI and GI50 results from PubChem BioAssay (NCI).

Where “and” joins values, the source holds several entries; their conditions need not be identical. Identical values can stand only once.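 Following 48 hours of exposure in 96-well plates, responses at five concentrations were used to interpolate endpoints linearly. GI50 marks 50% less growth. TGI: concentration producing complete growth inhibition.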

Test systems include IGROV1 ovarian; M14 melanoma; NCI-H226 lung; NCI-H460 lung; OVCAR-5 ovarian; SF-268 CNS; SF-295 CNS; SK-MEL-5 melanoma.
Holding throughout (test): inhibition of tumour cell growth, NCI panel, 48 h

`COc1ccccc1C1=C2C(=O)N(C)C(c3ccccc3OC)=C2C(=O)N1C`: the TGI in the assay on IGROV1 ovarian, in the assay on M14 melanoma, in the assay on NCI-H226 lung, in the assay with NCI-H460 lung, in the assay with OVCAR-5 ovarian and with SF-268 CNS was above 100 µM in each case. The TGI in the assay on SF-295 CNS and in the assay with SK-MEL-5 melanoma was above 100 µM throughout.
With `C=C(Cl)COC(=O)Nc1cccc(Cl)c1`, the TGI in the assay with IGROV1 ovarian, in the assay with M14 melanoma, with NCI-H226 lung, in the assay on NCI-H460 lung, in the assay with OVCAR-5 ovarian and in the assay with SF-268 CNS was above 100 µM throughout. In addition, the TGI was determined as 96.2 µM with SF-295 CNS and 39.6 µM in the assay on SK-MEL-5 melanoma.
Regarding `CCOC(=O)CCCn1c(SC)nc2cc(-c3ccco3)[nH]c2c1=O`, the GI50 was 19.6 µM in the assay with IGROV1 ovarian; above 100 µM in the assay on M14 melanoma; above 100 µM with NCI-H226 lung; above 100 µM in the assay on NCI-H460 lung; above 100 µM with OVCAR-5 ovarian; 52.7 µM in the assay with SF-268 CNS. For the same compound, the GI50 with SF-295 CNS was 16.7 µM; in the assay with SK-MEL-5 melanoma it was above 100 µM. Further, the TGI in the assay with IGROV1 ovarian was 76.6 µM; in the assay on M14 melanoma, above 100 µM; in the assay on NCI-H226 lung it was above 100 µM; in the assay with NCI-H460 lung it was above 100 µM; in the assay with OVCAR-5 ovarian, above 100 µM; in the assay with SF-268 CNS it was above 100 µM. Besides, the TGI in the assay with SF-295 CNS was 54.8 µM; in the assay on SK-MEL-5 melanoma it was above 100 µM.
`COc1ccc(C2=NN(C(=O)COc3ccc(Cl)cc3)C(O)(c3cc(F)c(Cl)cc3Cl)C2)cc1OC` (stereo not given): the GI50 in the assay on IGROV1 ovarian was 10.2 µM; in the assay with M14 melanoma, 2.18 µM; with NCI-H226 lung, 2.84 µM; in the assay on NCI-H460 lung it was 8.87 µM; with OVCAR-5 ovarian, 5.91 µM; with SF-268 CNS, 3.91 µM. The GI50 with SK-MEL-5 melanoma was 8.29 µM. The TGI is 22.2 µM with IGROV1 ovarian; 6.5 µM in the assay on M14 melanoma; 8.24 µM in the assay on NCI-H226 lung; 24.3 µM in the assay with NCI-H460 lung; 13.3 µM in the assay with OVCAR-5 ovarian; 17.4 µM in the assay on SF-268 CNS. For the same compound, the TGI in the assay on SF-295 CNS was found to be 11.8 µM; with SK-MEL-5 melanoma it was 20.9 µM.
As to `Cn1ccc2c(NCCN)c3c(c(NCCN)c21)C(=O)c1ccccc1C3=O`, the GI50 is 0.824 µM in the assay with IGROV1 ovarian; 2.32 µM in the assay on M14 melanoma; 1.3 µM in the assay on NCI-H226 lung; 0.448 µM with NCI-H460 lung; 2.78 µM with OVCAR-5 ovarian; 1.47 µM in the assay with SF-268 CNS. Further, the GI50 in the assay with SF-295 CNS was 0.968 µM; in the assay on SK-MEL-5 melanoma, 2.19 µM. The TGI in the assay on IGROV1 ovarian was above 31.8 µM; with M14 melanoma, 8.68 µM; with NCI-H226 lung it was 5.8 µM; with NCI-H460 lung, 2.24 µM; with OVCAR-5 ovarian it was 12 µM; in the assay on SF-268 CNS it was 7.11 µM. The TGI with SF-295 CNS came out at 5.77 µM; in the assay with SK-MEL-5 melanoma it was 4.99 µM.
Take `COc1cc(NC(=O)c2cc(OC)c3ccn(C)c3c2)cc2c1C[C@]1(C)CC[C@@H](O)C(C)(C)[C@H]1O2`: the GI50 was 21.2 µM in the assay on IGROV1 ovarian; 2.91 µM in the assay on M14 melanoma; 26.5 µM with NCI-H226 lung; 5.24 µM in the assay with NCI-H460 lung; 27.3 µM in the assay with OVCAR-5 ovarian; 9.09 µM in the assay on SF-268 CNS. Further, the GI50 in the assay with SF-295 CNS is 1.01 µM; in the assay with SK-MEL-5 melanoma it was 2.87 µM. In addition, the TGI is above 100 µM in the assay on IGROV1 ovarian; 14 µM with M14 melanoma; above 100 µM in the assay on NCI-H226 lung; above 100 µM in the assay with NCI-H460 lung; above 100 µM in the assay with OVCAR-5 ovarian; above 100 µM in the assay with SF-268 CNS. Besides, the TGI in the assay with SF-295 CNS amounted to 2.95 µM; with SK-MEL-5 melanoma, 9.08 µM.
Take `CC(=O)Nc1nc(SCc2ccccc2)c2ncn(C(C)=O)c2n1`: the GI50 is 79 µM in the assay with IGROV1 ovarian; 88.6 µM in the assay on M14 melanoma; 45.4 µM with NCI-H226 lung; above 100 µM in the assay with NCI-H460 lung; above 100 µM in the assay on OVCAR-5 ovarian; above 100 µM in the assay with SF-268 CNS. For the same compound, the GI50 is 66.1 µM with SF-295 CNS and 45.3 µM with SK-MEL-5 melanoma. The TGI with IGROV1 ovarian, in the assay on M14 melanoma, in the assay on NCI-H226 lung, in the assay on NCI-H460 lung, in the assay on OVCAR-5 ovarian and in the assay with SF-268 CNS was above 100 µM throughout. The TGI in the assay with SF-295 CNS and in the assay with SK-MEL-5 melanoma was above 100 µM each time.
In the case of `C[C@]12CC[C@H](O)CC1=CC[C@@H]1C2CC[C@]2(C)c3nn(-c4ccc(F)cc4)nc3CC12` (stereo not given in full), the TGI in the assay on IGROV1 ovarian, in the assay on M14 melanoma, in the assay with NCI-H226 lung, in the assay on NCI-H460 lung, in the assay with OVCAR-5 ovarian and in the assay on SF-268 CNS was above 100 µM throughout. The TGI with SF-295 CNS and in the assay on SK-MEL-5 melanoma was above 100 µM throughout.
As for `CC1(C)OC[C@@H]([C@@]2(CO[Si](C)(C)C(C)(C)C)CC=CC(=O)O2)O1`, the GI50 with IGROV1 ovarian is 23.1 µM; with M14 melanoma, 20.9 µM; in the assay with NCI-H460 lung it was 26.6 µM; in the assay on OVCAR-5 ovarian, 28.6 µM; in the assay on SF-268 CNS, 29 µM; in the assay with SF-295 CNS, 19.6 µM. Further, the GI50 with SK-MEL-5 melanoma was 19 µM. The TGI with IGROV1 ovarian was 49.6 µM; in the assay on M14 melanoma, 50.7 µM; in the assay on NCI-H460 lung it was above 100 µM; in the assay on OVCAR-5 ovarian it was 69.3 µM; in the assay with SF-268 CNS, 89.2 µM; with SF-295 CNS, 42 µM. The compound further yielded a TGI in the assay with SK-MEL-5 melanoma of 36.3 µM.
Consider `O=C1/C(=C/c2ccc(O)c([N+](=O)[O-])c2)CCC/C1=C\c1ccc(O)c([N+](=O)[O-])c1`, for which the GI50 in the assay with IGROV1 ovarian is 15.2 µM; in the assay on M14 melanoma it was 14.6 µM; in the assay on NCI-H226 lung, 33.7 µM; in the assay on OVCAR-5 ovarian, 21.9 µM; in the assay with SK-MEL-5 melanoma, 14.7 µM. Also, the TGI in the assay with IGROV1 ovarian was 17 µM and 28.5 µM; with M14 melanoma it was 31.8 µM and 29.7 µM; with NCI-H226 lung, 24.7 µM and > 100 µM; in the assay with NCI-H460 lung it was 31.6 µM; in the assay on OVCAR-5 ovarian it was 33.8 µM and 39.5 µM; in the assay on SF-268 CNS, 19.9 µM. Besides, the TGI with SF-295 CNS was 50 µM and > 100 µM; in the assay with SK-MEL-5 melanoma, 17.4 µM and 31.5 µM.
